The values below come from ChEMBL document CHEMBL4834443, “Identification of bioactive compounds from mulberry enhancing glucose-stimulated insulin secretion” (Bioorg Med Chem Lett, 2021).

The subject of data set [1] is INS1. The data set can be described thus: Cytotoxicity against rat INS1 cells assessed as cell viability at 1 to 10 uM measured after 24 hrs by MTT assay. In kind it is cell-based. The note with it: ins1, 24 h, dose 1-10 µM. Background: Tetrazolium assays rely on reduction of a dye to a coloured formazan, in cell work by metabolically active cells.
Data set [2] deals with INS1. Description: Stimulation of glucose stimulated insulin secretion in rat INS1 cells assessed as glucose stimulation index at 5 uM in presence of glucose measured after 1 hr. In kind it is functional.
The subject of data set [3] is INS1. Description: Induction of insulin secretion in rat INS1 cells assessed as increase in IRS-2 expression at 2.5 uM measured after 24 hrs by western blot assay. In kind it is functional, cell-based. In general terms: A western blot detects proteins with antibodies after separation by electrophoresis.
In data set [4] the test system is INS1. The data set can be described thus: Induction of insulin secretion in rat INS1 cells assessed as increase in PDX-1 expression at 2.5 uM measured after 24 hrs by western blot assay. In kind it is functional, cell-based.
In data set [5] the test system is INS1. Description: Stimulation of glucose stimulated insulin secretion in rat INS1 cells assessed as glucose stimulation index at 2.5 uM in presence of glucose measured after 1 hr. In kind it is functional.
In data set [6] the test system is INS1. Description: Induction of insulin secretion in rat INS1 cells assessed as increase in phosphorylation of IRS 2 at Ser 731 at 2.5 uM measured after 24 hrs by western blot assay. The format is functional, cell-based.
The subject of data set [7] is INS1. Description: Induction of insulin secretion in rat INS1 cells assessed as increase in AKT expression at 2.5 uM measured after 24 hrs by western blot assay. The format is functional, cell-based.
Data set [8] deals with INS1. Description: Induction of insulin secretion in rat INS1 cells assessed as increase in phosphorylation of PI3K at 2.5 uM measured after 24 hrs by western blot assay. In kind it is functional, cell-based.
The subject of data set [9] is INS1. The data set can be described thus: Induction of insulin secretion in rat INS1 cells assessed as increase in phosphorylation of AKT at Ser 473 at 2.5 uM measured after 24 hrs by western blot assay. The format is functional, cell-based.
Data set [10] concerns INS1. The data set can be described thus: Induction of insulin secretion in rat INS1 cells assessed as increase in PI3K expression at 2.5 uM measured after 24 hrs by western blot assay. In kind it is functional, cell-based.
Data set [11] has as its system INS1. The data set can be described thus: Cytotoxicity against rat INS1 cells assessed as cell viability at 10 uM measured after 24 hrs by MTT assay. The format is cell-based. As to conditions: ins1, 24 h.
In data set [12] the test system is INS1. Description: Induction of insulin secretion in rat INS1 cells assessed as increase in PI3K expression at 5 uM measured after 24 hrs by western blot assay. The format is functional, cell-based.
Data set [13] has as its system INS1. Description: Induction of insulin secretion in rat INS1 cells assessed as increase in phosphorylation of PI3K at 5 uM measured after 24 hrs by western blot assay. The format is functional, cell-based.
Data set [14] deals with INS1. Description: Induction of insulin secretion in rat INS1 cells assessed as increase in phosphorylation of AKT at Ser 473 at 5 uM measured after 24 hrs by western blot assay. The format is functional, cell-based.
The test system of data set [15] is INS1. The data set can be described thus: Induction of insulin secretion in rat INS1 cells assessed as increase in AKT expression at 5 uM measured after 24 hrs by western blot assay. In kind it is functional, cell-based.
Data set [16] concerns INS1. Description: Induction of insulin secretion in rat INS1 cells assessed as increase in phosphorylation of IRS 2 at Ser 731 at 5 uM measured after 24 hrs by western blot assay. The format is functional, cell-based.
Data set [17] has as its system INS1. Description: Induction of insulin secretion in rat INS1 cells assessed as increase in IRS-2 expression at 5 uM measured after 24 hrs by western blot assay. The format is functional, cell-based.
The test system of data set [18] is INS1. Description: Induction of insulin secretion in rat INS1 cells assessed as increase in PDX-1 expression at 5 uM measured after 24 hrs by western blot assay. The format is functional, cell-based.

Molecules are shown by their SMILES. Active and inactive are the calls of the source. The calls are words filed in the database; no cut-off is given here.

Turning to `COC(=O)[C@@H]1CCC(=O)N1`, the Activity entry with INS1 [1] is given as “Non-Toxic”.

In the case of `C[C@@H](C(=O)O)[C@H]1CCO[C@]1(C)O`, the Activity entry in the data set with INS1 [1] was “Non-Toxic”.

`O=Cc1coc2ccccc12`: the Activity entry with INS1 [1] is reported as “Non-Toxic”.

Consider `O=C1CC[C@@H](O)N1`, for which the Activity result in the data set with INS1 [1] is recorded as “Non-Toxic”. Further, the figures for the Activity_index in the data set with INS1 [2] and in the data set with INS1 [5] were 11.31 and 6.57, respectively. For the same compound, the result in the data set with INS1 [3], in the data set with INS1 [4], in the data set with INS1 [6], in the data set on INS1 [7], in the data set on INS1 [8] and with INS1 [9] was Active. Besides, the result in the data set on INS1 [10] was Active.

Turning to `Cc1ccc(S(=O)(=O)NC(=O)NN2CC3CCCC3C2)cc1` (configuration not stated) [GLICLAZIDE], the results for the Activity_index in the data set with INS1 [2] and in the data set on INS1 [5] were 3.47 and 2.46, respectively. Besides, the Activity result in the data set with INS1 [11] is listed as “Toxic”.

As for `c1ccc2[nH]ccc2c1` [INDOLE], the Activity result in the data set with INS1 [1] is on record as “Non-Toxic”. The Activity_index came to 7.72 with INS1 [2] and 3.31 with INS1 [5]. Besides, the result in the data set on INS1 [12], in the data set on INS1 [13], with INS1 [14], in the data set with INS1 [15], in the data set on INS1 [16] and in the data set with INS1 [17] was Active. Further, the outcome in the data set with INS1 [18] was Active.

On to `CC1(C)C[C@H](O)C[C@@]2(C)OC(=O)C=C12` [LOLIOLIDE], for which the Activity result in the data set with INS1 [1] is “Non-Toxic”.
